According to patent US10851065B2 (Eisai R&D Management Co., Ltd., priority 2015, dated 2020):

Experiments:
[1] = system: MCF7-WT cells (MCF7 ER-alpha wildtype); test: In vitro proliferation (viability) assay, CellTiter-Glo, MCF7-WT cells; assay type: cell-based; settings: Homo sapiens; MCF7-WT cells, 6 days, CTG vs day 0; mean ± SD-type spread (n); read-out: GI50 WT
Protocol: (§1) MCF7 BUS cells (Coser, et al., (2003) PNAS 100(24): 13994-13999) were maintained in Dulbecco's Modified Eagle Medium supplemented with 10% FBS, 4 mM L-glutamine and 1× non-essential amino acids. Lenti-X 293T cells (Clontech, Cat #632180) were routinely cultured in Dulbecco's Modified Eagle Medium supplemented with 10% FBS.
(§2) The QuikChange II XL Site-Directed Mutagenesis Kit (Agilent Technologies, Cat #200523) was used to generate Y537S, Y537C, Y537N and D538G mutations within the ERα exon 8. Wild-type ESR1 cDNA (GeneCopoeia Inc., Cat #GC-A0322, accession no. NM 000125) was used as a template with the following mutagenesis primers (where the underlined nucleotides represent site mutations); Y537S: F-AAGAACGTGGTGCCCCTCTCTGACCTGCTGCTGGAGATG (SEQ ID NO: 1), R-CATCTCCAGCAGCAGGTCAGAGAGGGGCACCACGTTCTT (SEQ ID NO: 2); Y537N: F-AAGAACGTGGTGCCCCTCAATGACCTGCTGCTGGAGATG (SEQ ID NO: 3), R-CATCTCCAGCAGCAGGTCATTGAGGGGCACCACGTTCTT (SEQ ID NO: 4); Y537C: F-AAGAACGTGGTGCCCCTCTGTGACCTGCTGCTGGAGATG (SEQ ID NO: 5), R-CATCTCCAGCAGCAGGTCACAGAGGGGCACCACGTTCTT (SEQ ID NO: 6); D538G: F-AACGTGGTGCCCCTCTATGGCCTGCTGCTGGAGATGCTG (SEQ ID NO: 7), R-CAGCATCTCCAGCAGCAGGCCATAGAGGGGCACCACGTT (SEQ ID NO: 8). WT and mutant ESR1 cDNAs were cloned into the designation lentiviral vector pLenti6.3/V5-Dest (Invitrogen, Cat #V533-06). To make lentivirus, DNAs (WT and mutant ESR1) were co-transfected with packaging plasmids into Lenti-X 293T cells using TransIT (Mirus, Cat #MIR 2700). 48 h post-transfection, virus containing media was filtered and added to MCF7 cells in the presence of 8 µg/ml polybrene overnight. Two days following infection, cells were placed under selection with 10 μg/ml blasticidin for 2 weeks for stable expression.
(§3) MCF7-WT and -Y537S cells were seeded at 1500 cells/well in black-walled 96-well plates (assay plates, Costar, Cat #3904). In parallel, cells were also seeded in a separate 96-well plate (8 wells/cell line, control plate) for which a CTG (CellTiter-Glo® Luminescent Viability Assay, Promega, Cat #G7572) was measured the following day (day 0 reading). The day 0 reading was used for the GI50 calculation at the termination of the experiment. The day following seeding, compounds were added to assay plates. Briefly, a 1:4 serial dilution was prepared in DMSO at 200× final concentration for a total of 10 concentrations (9 dilutions containing compound and one is DMSO only). Serially diluted compounds were pipetted into medium to prepare a compound-medium mix at 10× final concentration. 10 μl of compound-medium mix was added to MCF7-WT and -Y537S cells at 3 wells/concentration (triplicate for each concentration). On day 3, media/compound was removed and replaced with fresh media/compound as described above. On day 6, CTG was measured and compared to day 0 readings from control plate to assess GI50.

[2] = system: MCF7-Y537S cells (MCF7 ER-alpha Y537S mutant); test: In vitro proliferation (viability) assay, CellTiter-Glo, MCF7-Y537S cells; assay type: cell-based; settings: Homo sapiens; MCF7-Y537S cells, 6 days, CTG vs day 0; mean ± SD-type spread (n); read-out: GI50 MUT (Y537S)
Protocol: as §1, §2, §3

CN(C)C(=O)/C=C/CNCCOc1ccc(/C(=C(\c2ccccc2)C2CCC2)c2ccc3[nH]ncc3c2F)cc1 [Compound 24, (E)-4-((2-(4-((E)-2-cyclobutyl-1-(4-fluoro-1H-indazol-5-yl)-2-phenylvinyl)phenoxy)ethyl)amino)-N,N-dimethylbut-2-enamide]
GI50 [1]: 1.05 ± 0.3 nM
GI50 [2]: 19.9 ± 3.58 nM

CC/C(=C(/c1ccc(OCCNC/C=C/C(=O)N(C)C)nc1)c1ccc2[nH]ncc2c1)c1ccccc1 [Compound 25, (E)-4-((2-((5-((Z)-1-(1H-indazol-5-yl)-2-phenylbut-1-en-1-yl)pyridin-2-yl)oxy)ethyl)amino)-N,N-dimethylbut-2-enamide]
GI50 [1]: 1.15 ± 0.3 nM
GI50 [2]: 19.6 ± 4.26 nM

CC/C(=C(/c1ccc(OCCNC/C=C/C(=O)N(C)CCO)cc1)c1ccc2[nH]ncc2c1)c1ccccc1C [Compound 26, (E)-4-((2-(4-((E)-1-(1H-indazol-5-yl)-2-(o-tolyl)but-1-en-1-yl)phenoxy)ethyl)amino)-N-(2-hydroxyethyl)-N-methylbut-2-enamide]
GI50 [1]: 2.18 ± 0.87 nM
GI50 [2]: 32.5 ± 16.7 nM

CC/C(=C(/c1ccc(OCCNC/C=C/C(=O)N(C)CCO)cc1)c1ccc2[nH]nc(F)c2c1)c1ccc(F)cc1Cl [Compound 28, (E)-4-((2-(4-((E)-2-(2-chloro-4-fluorophenyl)-1-(3-fluoro-1H-indazol-5-yl)but-1-en-1-yl)phenoxy)ethyl)amino)-N-(2-hydroxyethyl)-N-methylbut-2-enamide]
GI50 [1]: 3.16 nM
GI50 [2]: 69.7 nM

CC/C(=C(/c1ccc(OCCNC/C=C/C(=O)N(C)C)cc1)c1ccc2[nH]ncc2c1)c1ccc(C(C)C)cc1 [Compound 29, (E)-4-((2-(4-((E)-1-(1H-indazol-5-yl)-2-(4-isopropylphenyl)but-1-en-1-yl)phenoxy)ethyl)amino)-N,N-dimethylbut-2-enamide]
GI50 [1]: 3.37 nM
GI50 [2]: 58.7 nM

CN(C)C(=O)/C=C/CNCCOc1ccc(/C(=C(/CCCl)c2ccccc2)c2ccc3[nH]ncc3c2)cc1 [Compound 30, (E)-4-((2-(4-((E)-4-chloro-1-(1H-indazol-5-yl)-2-phenylbut-1-en-1-yl)phenoxy)ethyl)amino)-N,N-dimethylbut-2-enamide]
GI50 [1]: 2.74 ± 1.06 nM
GI50 [2]: 61.3 ± 9.98 nM

CC/C(=C(/c1ccc(OCCNC/C=C/C(=O)N(C)C)cc1)c1ccc2[nH]ncc2c1)c1ccccc1OC [Compound 31]
GI50 [1]: 0.83 nM
GI50 [2]: 13.1 nM

CC/C(=C(/c1ccc(OCCNC/C=C/C(=O)N(C)C)cc1)c1ccc2[nH]ncc2c1)c1ccccc1OC(F)F [Compound 32, (E)-4-((2-(4-((E)-2-(2-(difluoromethoxy)phenyl)-1-(1H-indazol-5-yl)but-1-en-1-yl)phenoxy)ethyl)amino)-N,N-dimethylbut-2-enamide]
GI50 [1]: 1.28 nM
GI50 [2]: 22.9 nM

CC/C(=C(/c1ccc(OCCNC/C=C/C(=O)N(C)C)cc1)c1ccc2[nH]ncc2c1)c1ccccc1OC(F)(F)F [Compound 33, (E)-4-((2-(4-((E)-1-(1H-indazol-5-yl)-2-(2-(trifluoro-methoxy)phenyl)but-1-en-1-yl)phenoxy)ethyl)amino)-N,N-dimethylbut-2-enamide]
GI50 [1]: 2.5 nM
GI50 [2]: 29.3 nM

CC/C(=C(/c1ccc(OCCNC/C=C/C(=O)N(C)C)cc1)c1ccc2[nH]ncc2c1)c1ccccc1C(C)C [Compound 34, (E)-4-((2-(4-((E)-1-(1H-indazol-5-yl)-2-(2-isopropylphenyl)but-1-en-1-yl)phenoxy)ethyl)amino)-N,N-dimethylbut-2-enamide]
GI50 [1]: 10.5 nM
GI50 [2]: 93.6 nM

CC/C(=C(/c1ccc(OCCNC/C=C/C(=O)N(C)C)cc1)c1ccc2[nH]ncc2c1)c1ccccc1CC [Compound 35, (E)-4-((2-(4-((E)-2-(2-ethylphenyl)-1-(1H-indazol-5-yl)but-1-en-1-yl)phenoxy)ethyl)amino)-N,N-dimethylbut-2-enamide]
GI50 [1]: 6.22 ± 0.58 nM
GI50 [2]: 47.8 ± 15.6 nM

CC/C(=C(/c1ccc(OCCNC/C=C/C(=O)N(C)C)cc1)c1ccc2[nH]ncc2c1)c1ccccc1C [Compound 36, (E)-4-((2-(4-((E)-1-(1H-indazol-5-yl)-2-(o-tolyl)but-1-en-1-yl)phenoxy)ethyl)amino)-N,N-dimethylbut-2-enamide]
GI50 [1]: 4.96 ± 3.1 nM
GI50 [2]: 25 ± 21.9 nM

CC/C(=C(/c1cnc(OCCNC/C=C/C(=O)N(C)C)nc1)c1ccc2[nH]ncc2c1)c1ccccc1 [Compound 38, (E)-4-((2-((5-((Z)-1-(1H-indazol-5-yl)-2-phenylbut-1-en-1-yl)pyrimidin-2-yl)oxy)ethyl)amino)-N,N-dimethylbut-2-enamide]
GI50 [1]: 8.23 ± 5.32 nM
GI50 [2]: 159 ± 128 nM

O=C(/C=C/CNCCOc1ccc(/C(=C(\c2ccccc2)C2CCC2)c2ccc3[nH]ncc3c2)cc1)N1CCC1 [Compound 39, (E)-1-(azetidin-1-yl)-4-((2-(4-((E)-2-cyclobutyl-1-(1H-indazol-5-yl)-2-phenylvinyl)phenoxy)ethyl)amino)but-2-en-1-one]
GI50 [1]: 1.79 ± 0.47 nM
GI50 [2]: 31.8 ± 4.85 nM

O=C(/C=C/CNCCOc1ccc(/C(=C(\c2ccccc2)C2CCC2)c2ccc3[nH]nc(F)c3c2)cc1)N1CCC1 [Compound 40, (E)-1-(azetidin-1-yl)-4-((2-(4-((E)-2-cyclobutyl-1-(3-fluoro-1H-indazol-5-yl)-2-phenylvinyl)phenoxy)ethyl)amino)but-2-en-1-one]
GI50 [1]: 7.52 ± 4.52 nM
GI50 [2]: 94.5 ± 20.8 nM

CN(CCO)C(=O)/C=C/CNCCOc1ccc(/C(=C(\c2ccccc2)C2CCC2)c2ccc3[nH]ncc3c2)cc1 [Compound 41, (E)-4-((2-(4-((E)-2-cyclobutyl-1-(1H-indazol-5-yl)-2-phenylvinyl)phenoxy)ethyl)amino)-N-(2-hydroxyethyl)-N-methylbut-2-enamide]
GI50 [1]: 3.84 nM
GI50 [2]: 66.3 nM

Cc1ccccc1/C(=C(\c1ccc(OCCNC/C=C/C(=O)N2CCC2)cc1)c1ccc2[nH]ncc2c1)C1CCC1 [Compound 42, (E)-1-(azetidin-1-yl)-4-((2-(4-((E)-2-cyclobutyl-1-(1H-indazol-5-yl)-2-(o-tolyl)vinyl)phenoxy)ethyl)amino)but-2-en-1-one]
GI50 [1]: 2.68 ± 1.66 nM
GI50 [2]: 69.4 ± 29.1 nM

CC/C(=C(/c1ccc(OCCNC/C=C/C(=O)N(C)C)cc1)c1ccc2[nH]nc(F)c2c1)c1ccccc1F [Compound 43, (E)-4-((2-(4-((E)-1-(3-fluoro-1H-indazol-5-yl)-2-(2-fluorophenyl)but-1-en-1-yl)phenoxy)ethyl)amino)-N,N-dimethylbut-2-enamide]
GI50 [1]: 1.94 nM
GI50 [2]: 47.3 nM

CC/C(=C(/c1ccc(OCCNC/C=C/C(=O)N(C)C)cc1)c1ccc2[nH]nc(F)c2c1)c1cccc(F)c1 [Compound 44, (E)-4-((2-(4-((E)-1-(3-fluoro-1H-indazol-5-yl)-2-(3-fluorophenyl)but-1-en-1-yl)phenoxy)ethyl)amino)-N,N-dimethylbut-2-enamide]
GI50 [1]: 4.91 nM
GI50 [2]: 180 nM

CC/C(=C(/c1ccc(OCCNC/C=C/C(=O)N(C)C)cc1)c1ccc2[nH]nc(F)c2c1)c1ccc(F)cc1 [Compound 45]
GI50 [1]: 4.14 nM
GI50 [2]: 104 nM

CN(C)C(=O)/C=C/CNCCOc1ccc(/C(=C(\c2ccc(F)cc2Cl)C2CCC2)c2ccc3[nH]nc(F)c3c2)cc1 [Compound 46, (E)-4-((2-(4-((E)-2-(2-chloro-4-fluorophenyl)-2-cyclobutyl-1-(3-fluoro-1H-indazol-5-yl)vinyl)phenoxy)ethyl)amino)-N,N-dimethylbut-2-enamide]
GI50 [1]: 0.95 nM
GI50 [2]: 12.4 nM
